In assay [1] the target is T1, 4-galactosyl-N-acetylglucosaminide 3-alpha-L-fucosyltransferase FUT5 (Homo sapiens, UniProt Q11128).
T1 sequence (Q11128 whole entry): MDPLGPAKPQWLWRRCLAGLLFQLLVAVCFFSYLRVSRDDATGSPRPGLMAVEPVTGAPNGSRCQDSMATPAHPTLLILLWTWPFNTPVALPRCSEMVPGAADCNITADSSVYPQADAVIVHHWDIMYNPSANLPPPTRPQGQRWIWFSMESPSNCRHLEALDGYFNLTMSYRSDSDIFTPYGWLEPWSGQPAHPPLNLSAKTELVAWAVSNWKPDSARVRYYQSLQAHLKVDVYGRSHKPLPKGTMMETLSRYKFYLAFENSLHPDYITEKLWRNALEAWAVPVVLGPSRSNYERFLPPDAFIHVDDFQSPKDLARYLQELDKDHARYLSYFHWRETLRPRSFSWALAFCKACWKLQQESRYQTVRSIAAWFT
Kind of assay: Inhibitory activity against fucosyltransferase (FucT V) in the presence of fucosyl acceptor N-acetyllactosamine.

Assay [2] addresses T1, 4-galactosyl-N-acetylglucosaminide 3-alpha-L-fucosyltransferase FUT5. The assay can be described thus: Inhibitory activity against fucosyltransferase (FucT V) in the presence of 1 mM fucosyl acceptor N-acetyllactosamine.
Assay [3] has the same target. Kind of assay: Inhibitory activity against fucosyltransferase (FucT V) in the presence of 10 mM fucosyl acceptor N-acetyllactosamine.

Turning to `Nc1nc2c(ncn2[C@@H]2O[C@H](COP(=O)(O)OP(=O)(O)O)[C@@H](O)[C@H]2O)c(=O)[nH]1`, the concentration for half-maximal inhibition (IC50) in assay [1] was 67 µM.
In the case of `C[C@@H]1N[C@H](COP(=O)(O)OP(=O)(O)OC[C@H]2O[C@@H](n3cnc4c(O)nc(N)nc43)[C@H](O)[C@@H]2O)[C@@H](O)[C@@H]1O`, the IC50 in assay [2] worked out at 45 µM; in assay [3], 82 µM.
`NCCOP(=O)(O)OP(=O)(O)OC[C@H]1O[C@@H](n2cnc3c(O)nc(N)nc32)[C@H](O)[C@@H]1O`: the half-maximal inhibitory concentration (IC50) in assay [1] was over 1000 µM.

As a reminder, the IC50 is the concentration that gives 50% inhibition.
